Here are results for two compounds from PMC10108353, “Design and Pharmacological Characterization of α4β1 Integrin Cyclopeptide Agonists: Computational Investigation of Ligand Determinants for Agonism versus Antagonism” (Journal of Medicinal Chemistry, 2023).

Assay [1] concerns the target T1, αMβ2 integrin (Homo sapiens, UniProt P05107+P11215). The assay can be described thus: HL60 cell adhesion to fibrinogen (Fg). Particulars: read-out: IC50 for antagonists, Fg/HL60 αMβ2. The class given is cell-based. The source says: mediated Jurkat cell adhesion to FN.
Assay [2] has as its target T2, α4β7 integrin (Homo sapiens, UniProt P13612+P26010).
T2 construct: purchased R&D Systems
T2 sequence (P13612 34-970 limits assumed): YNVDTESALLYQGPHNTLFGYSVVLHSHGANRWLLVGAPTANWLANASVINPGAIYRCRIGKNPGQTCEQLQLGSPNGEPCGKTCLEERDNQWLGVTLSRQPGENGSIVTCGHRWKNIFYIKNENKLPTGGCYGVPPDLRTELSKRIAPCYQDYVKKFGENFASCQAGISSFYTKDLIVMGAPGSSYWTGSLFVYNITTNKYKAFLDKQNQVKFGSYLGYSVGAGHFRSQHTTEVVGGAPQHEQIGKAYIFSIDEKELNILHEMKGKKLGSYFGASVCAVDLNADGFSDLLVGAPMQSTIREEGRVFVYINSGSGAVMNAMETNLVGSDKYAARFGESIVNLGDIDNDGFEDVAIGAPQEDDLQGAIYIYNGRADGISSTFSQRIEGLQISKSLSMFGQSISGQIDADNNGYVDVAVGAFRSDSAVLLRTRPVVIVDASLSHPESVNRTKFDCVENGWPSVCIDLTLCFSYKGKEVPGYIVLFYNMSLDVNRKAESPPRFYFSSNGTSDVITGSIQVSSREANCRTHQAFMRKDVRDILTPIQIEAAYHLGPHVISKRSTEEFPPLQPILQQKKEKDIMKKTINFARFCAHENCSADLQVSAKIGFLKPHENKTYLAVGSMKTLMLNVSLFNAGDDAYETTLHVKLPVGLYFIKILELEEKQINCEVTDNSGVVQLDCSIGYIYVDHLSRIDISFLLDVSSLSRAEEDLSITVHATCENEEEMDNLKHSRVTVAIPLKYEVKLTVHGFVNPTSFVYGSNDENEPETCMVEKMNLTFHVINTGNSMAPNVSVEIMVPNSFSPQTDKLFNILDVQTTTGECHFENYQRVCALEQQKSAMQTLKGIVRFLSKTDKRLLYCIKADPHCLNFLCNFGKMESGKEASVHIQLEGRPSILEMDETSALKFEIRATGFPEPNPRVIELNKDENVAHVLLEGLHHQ
T2 sequence (P26010 20-723 limits assumed): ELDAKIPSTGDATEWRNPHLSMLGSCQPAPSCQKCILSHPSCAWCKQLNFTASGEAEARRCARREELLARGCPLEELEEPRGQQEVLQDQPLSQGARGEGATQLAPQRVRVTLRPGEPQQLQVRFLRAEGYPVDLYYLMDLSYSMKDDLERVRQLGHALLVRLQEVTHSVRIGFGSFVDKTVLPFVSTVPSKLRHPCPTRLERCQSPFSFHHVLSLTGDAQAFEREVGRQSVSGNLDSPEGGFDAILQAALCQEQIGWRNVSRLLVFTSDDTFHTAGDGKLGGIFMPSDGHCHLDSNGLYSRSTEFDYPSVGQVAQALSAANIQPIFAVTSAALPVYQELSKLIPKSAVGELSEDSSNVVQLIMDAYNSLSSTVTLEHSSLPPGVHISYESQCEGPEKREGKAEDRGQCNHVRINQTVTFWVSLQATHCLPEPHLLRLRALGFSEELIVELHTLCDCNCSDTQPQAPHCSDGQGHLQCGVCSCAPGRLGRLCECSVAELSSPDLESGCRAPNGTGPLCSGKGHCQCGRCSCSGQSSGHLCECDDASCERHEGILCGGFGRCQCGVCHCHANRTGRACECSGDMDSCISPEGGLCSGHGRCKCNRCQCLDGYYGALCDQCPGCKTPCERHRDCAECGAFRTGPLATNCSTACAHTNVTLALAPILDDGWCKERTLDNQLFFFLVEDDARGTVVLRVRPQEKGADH
The settings on record: purified integrin; read-out: Binding affinity IC50, α4β7/MAdCAM-1. As to the method:
(§1) For the evaluation of binding affinity to purified α4β1, αMβ2, and α4β7 integrins, competitive solid-phase ligand binding assays were performed as follows. […] Afterward, each well was washed and blocked for 1 h at RT. Purified integrins (α4β1: 0.5 μg/mL; α4β7: 0.5 μg/mL; αMβ2: 0.5 μg/mL; R&D Systems) were preincubated with serial dilutions of new compounds (10^–4 – 10^–10 M) for 30 min at RT and then plated into coated wells for 1 h at RT. After two washes, primary antibody (for α4β1 and α4β7: rabbit anti-α4, Abcam, 1:100 dilution; for αMβ2: rabbit anti-αM, Abcam, 1:100 dilution) was added and incubated for 1 h at RT. The plate was washed twice and then was incubated with anti-rabbit AlexaFluor488 secondary antibody (1:400 dilution, ThermoFischer Scientific) for 1 h at RT. After washing three times, fluorescence was measured as described in the previous section.

Assay [3] deals with αLβ2 integrin (Homo sapiens, UniProt P05107+P20701). The assay can be described thus: Competitive solid-phase binding assay, purified αLβ2 / ICAM-1. Particulars: read-out: Binding affinity IC50, αLβ2/ICAM-1. As to the method:
(§2) Solid-phase ligand binding assays on purified integrin were conducted as previously described[34] with the following modifications. […] The following day, wells were blocked with TSB buffer (20 mM Tris-HCl, 150 mM NaCl, 1 mM CaCl2, 1 mM MgCl2, 1 mM MnCl2, pH 7.5, 1% BSA) for 1 h at room temperature. Purified α5β1 (10 μg/mL) or αLβ2 (7 μg/mL) was incubated with the new synthesized compounds, at different concentrations (10^–4 to 10^–10 M), in coated wells for 1 h at RT. Then, after three washes with PBST buffer, primary antibody (anti-α5β1, BD Bioscience, 1:100 dilution or anti-αL, Abcam, 1:200 dilution) was added for 1 h at RT. Then antirabbit AlexaFluor488-secondary antibody (ThermoFisher Scientific, 1:400 dilution) was added after three washes with PBST buffer and incubated 1 h at room temperature.

Assay [4] has as its target α5β1 integrin (Homo sapiens, UniProt P05556+P08648). In words: Competitive solid-phase binding assay, purified α5β1 / FN. Particulars: read-out: Binding affinity IC50, α5β1/FN. As to the method: as §2
Assay [5] has as its target T3, α4β1 integrin (Homo sapiens, UniProt P05556+P13612). In words: Competitive solid-phase binding assay, purified α4β1 / FN. Also noted: purchased R&D Systems. The settings on record: mean ± SD, three experiments in triplicate, read-out: Binding affinity IC50, α4β1/FN. As to the method:
as §1

For assay [6], the target named is T1, αMβ2 integrin. In words: Competitive solid-phase binding assay, purified αMβ2 / fibrinogen. Also noted: purchased R&D Systems. The settings on record: read-out: Binding affinity IC50, αMβ2/Fg. As to the method:
as §1

Assay [7] concerns the target T3, α4β1 integrin. The assay can be described thus: Jurkat E6.1 cell adhesion to FN. Particulars: for agonist or antagonist behaviour, FN/Jurkat E6.1 α4β1: agonist = adhesion index >1, antagonist = adhesion index <1.

Regarding `Cc1ccccc1NC(=O)N1C(=O)CC1CC(=O)O` (stereo not drawn) [1a], the IC50 in assay [1] is more than 5 µM; in assay [2] it was more than 5 µM; in assay [3], more than 5 µM; in assay [4] it was more than 5 µM; in assay [5] it was 0.0133 ± 0.0063 µM; in assay [6], more than 5 µM. Further, in assay [7], the “agonist or antagonist behaviour, FN/Jurkat E6.1 α4β1” value was “agonist”. The EC50 in assay [7] (read-out: EC50 for agonists, FN/Jurkat E6.1 α4β1, increase of cell adhesion, mean ± SD, three experiments in quadruplicate) was determined as 0.0156 ± 0.0015 µM.
Regarding `Cc1ccccc1NC(=O)N1C(=O)CC1CC(=O)NCC(=O)O` (stereo not drawn) [1b], the IC50 was more than 5 µM in assay [1]; more than 5 µM in assay [2]; more than 5 µM in assay [3]; 0.049 ± 0.007 µM in assay [4]; more than 5 µM in assay [5]; more than 5 µM in assay [6]. Moreover, the “agonist or antagonist behaviour, FN/Jurkat E6.1 α4β1” value in assay [7] is reported as “completely ineffective”.
